Experimental findings from US20110152166A1, “METHOD OF MODULATION OF PROTEIN PHOSPHORYLATION-DEPENDENT CONFORMATIONAL TRANSITIONS WITH LOW MOLECULAR WEIGHT COMPOUNDS” (priority 2006, published 2011) are described below.

One assay has as its target T1, PKBa[Ser473Asp] (Homo sapiens, UniProt P31749, S473D).
T1 construct: made in house; host or cells: HEK293
Kind of assay: AGC kinase panel activity assay (Crosstide). Type of assay: biochemical. On the procedure: (§1) Protein kinase activity tests were performed essentially as previously described (Balendran et al., 2000; Biondi et al., 2000; Biondi et al., 2001). Substrates used were either MBP (for PKCζ or polypeptides (Crosstide for PKB, S6K, SGK and PRK2; T308tide for PDK1, and Kemptide for PKA). PKA (Sigma) was measured in the presence of 100 μM cAMP. Alternatively, assays were performed in a 96 well format, aliquots spotted on p81 phosphocellulose papers (Whatmann), washed in 0.01% phosphoric acid, dried, and then exposed and analysed using Phospholmager technology (Storm, Molecular Dynamics). Activity measurements were performed in duplicates with less than 10% difference between duplicate pairs. Experiments were repeated at least twice, although most of the experiments were repeated multiple times, with similar results.
(§2) Activity assays for each kinase were performed as described in Materials and Methods in the presence of 1% DMSO (100%). Except PKA, all protein kinases were produced as a GST-fusion. S6K1, PKBα, SGK mutants used were S6K1-T2-[Thr412Glu], PKBa[Ser473Asp] and ΔN-SGK[Ser422Asp].

The target in another assay is T2, ΔN-SGK[Ser422Asp] (Homo sapiens, UniProt O00141, S422D).
T2 construct: made in house; host or cells: HEK293
T2 sequence (O00141 61-431 S422D limits assumed): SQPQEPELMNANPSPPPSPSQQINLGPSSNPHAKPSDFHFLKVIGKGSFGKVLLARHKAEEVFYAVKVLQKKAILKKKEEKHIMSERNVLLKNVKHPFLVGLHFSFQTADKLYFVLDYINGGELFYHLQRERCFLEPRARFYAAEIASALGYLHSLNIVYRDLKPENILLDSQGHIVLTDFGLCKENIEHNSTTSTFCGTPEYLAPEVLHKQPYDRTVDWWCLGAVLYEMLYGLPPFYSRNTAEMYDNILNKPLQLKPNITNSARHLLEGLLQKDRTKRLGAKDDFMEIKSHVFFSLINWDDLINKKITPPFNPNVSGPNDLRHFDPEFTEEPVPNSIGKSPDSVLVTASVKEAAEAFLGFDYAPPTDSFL
Description: AGC kinase panel activity assay (Crosstide). Type of assay: biochemical. The note with it: for SGK1 (%) activity: 1% DMSO = 100%. On the procedure: as §1, §2

The next assay deals with GST-S6K11-365 (Rattus norvegicus, UniProt P67999). Kind of assay: Global amide hydrogen exchange (HXMS). Further details: made in house. The note with it: early time points; peptide 150 molar excess. From the text:
(A) Effect of S6K1 tail peptides, described in the legend to FIG. 13, on global deuteron uptake by purified GST-56K11-365. (B) Kinase activity of wt and mutant GST-PKCζ. (C) Global deuteron uptake by wt and mutant GST-PKCζ. (D) Local deuteron uptake by wt and mutant GST-PKCζ. In the PKCζ model, peptides showing strong and no-or-slight protection by the tail phosphate are shown in pink and grey, respectively. The panels show HX curves of the peptides. Experiments were repeated 2 times (A, C, D) or 3 times (B) and data are means±range (A, C) or ±SD (B)
Amide hydrogen (^1H/^2H) exchange monitored by mass spectrometry (HXMS). D2O (99.9 atom % D) was obtained from Cambridge Isotope Laboratories. Isotopic exchange was initiated by diluting 8 μl 20-40 μM protein in 300 μl deuterated buffer (25 mM Tris, 150 mM NaCl, 1 mM dithiothreitol, 10 mM MgCl2, 25 mM glutathione, pD 7.1 uncorrected value). The exchange was carried out at 30° C., and 75 μl aliquots were collected after 1 min, 5 min, 15 min, and 45 min. […]
The LC setup was described previously (Jorgensen et al., 2004), with the modification that proteins were desalted for 5 min and eluted with a 9 min linear gradient (14% to 70% acetonitrile, 0.05% TFA) to separate the free GST from the GST-tagged kinases of interest in the global hydrogen exchange analysis. […] The HXMS data on peptide level were analyzed by HX-Express (Weis et al., 2006). […]

T1 sequence (P31749 whole entry S473D): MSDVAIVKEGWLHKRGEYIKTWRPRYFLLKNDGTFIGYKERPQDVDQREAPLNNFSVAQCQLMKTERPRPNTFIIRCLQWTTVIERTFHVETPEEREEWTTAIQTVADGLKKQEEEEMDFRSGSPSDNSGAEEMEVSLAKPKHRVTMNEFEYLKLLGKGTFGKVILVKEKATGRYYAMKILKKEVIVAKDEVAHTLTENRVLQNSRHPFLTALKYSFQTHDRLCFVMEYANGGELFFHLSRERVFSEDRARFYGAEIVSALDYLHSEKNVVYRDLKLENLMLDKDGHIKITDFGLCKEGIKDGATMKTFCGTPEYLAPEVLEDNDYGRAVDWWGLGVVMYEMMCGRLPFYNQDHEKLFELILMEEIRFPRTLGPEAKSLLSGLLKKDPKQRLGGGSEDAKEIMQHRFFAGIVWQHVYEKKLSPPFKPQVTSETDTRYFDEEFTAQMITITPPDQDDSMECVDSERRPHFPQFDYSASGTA
GST-S6K11-365, sequence (P67999 24-388): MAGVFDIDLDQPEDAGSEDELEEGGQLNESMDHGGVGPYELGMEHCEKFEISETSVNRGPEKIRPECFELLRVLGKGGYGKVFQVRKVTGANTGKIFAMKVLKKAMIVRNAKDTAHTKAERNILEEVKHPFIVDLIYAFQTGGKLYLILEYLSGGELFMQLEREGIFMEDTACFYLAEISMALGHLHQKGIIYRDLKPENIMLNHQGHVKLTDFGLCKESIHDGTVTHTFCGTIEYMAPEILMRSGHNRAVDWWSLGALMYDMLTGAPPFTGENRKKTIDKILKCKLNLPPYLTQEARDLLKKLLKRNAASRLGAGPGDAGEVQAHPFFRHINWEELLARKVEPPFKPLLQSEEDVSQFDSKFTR

As for `O=C(O)CSC(CC(=O)c1ccc(Cl)cc1)c1ccccc1` (stereo not drawn) [Compound 1], the “effect on PKBa/AKT1 activity (in words)” value at PKBa[Ser473Asp] (20 μM) is given as “no significant effect”. For the same compound, the activity at 20 µM at PKBa[Ser473Asp] (20 μM compound, 1% DMSO = 100%, read-out: PKBα (%) activity) came to 89%. Moreover, the activity at 200 µM at PKBa[Ser473Asp] (200 μM compound, 1% DMSO = 100%, read-out: PKBα (%) activity) is 85%. Moreover, on ΔN-SGK[Ser422Asp] (20 μM), the “effect on SGK1 activity (in words)” value was “no significant effect”. Also, the “SGK1 (%) activity” value on ΔN-SGK[Ser422Asp] (20 μM compound) worked out at 97%; on ΔN-SGK[Ser422Asp] (200 μM compound), 61%.

With `COC(=O)CSC(CC(=O)c1ccc(Cl)cc1)c1ccccc1` (stereo not drawn) [Compound 2], the “PKBα (%) activity” value at PKBa[Ser473Asp] (20 μM compound, 1% DMSO = 100%) was determined as 92%; at PKBa[Ser473Asp] (200 μM compound, 1% DMSO = 100%), 106%. In addition, the “SGK1 (%) activity” value is listed as 89% on ΔN-SGK[Ser422Asp] (20 μM compound) and 92% at ΔN-SGK[Ser422Asp] (200 μM compound).

Turning to “S371/T389: synthetic S6K1 tail peptide (residues 366-395), non-phosphorylated”, the “fewer deuterons incorporated in S6K11-365 versus no peptide” value in the assay with GST-S6K11-365 is recorded as “no effect”.

In the case of “S371/pT389: synthetic S6K1 tail peptide (residues 366-395) phosphorylated in the HM”, in the assay with GST-S6K11-365, the “fewer deuterons incorporated in S6K11-365 versus no peptide” value is on record as “≈ 10 deuterons”.
